Entries after “also recorded” stand apart in the source; their conditions may differ.
Assays:
[1] = tested on: isolated rat aorta; experiment: In vitro induction of tolerance to NO releasing compounds (vasorelaxation of pre-exposed aortic rings, incl. cross-tolerance); assay type: cell-based; details: for tolerance induction after pre-treatment with the same compound: rat aorta pre-treated with epinephrine and then 0.44 mM of the compound
Method: Aortic rings were prepared as described hereinabove, and were exposed to 0.44 mM GTN (vehicle was water:ethanol:propyleneglycol at proportional ratio of 1:1:1) for 1 hour before CCRC construction, to thereby induce tolerance to nitroglycerine. At the end of the tolerance induction period, rings were thrice washed with the path buffer (Krebs-bicrbonate) every 15 minutes for the following hour and then CCRC for vasorelaxation on GTN-induced tolerance rings were constructed for GTN (pretreated versus untreated rings, FIG. 15), in order to verify the ability to induce and measure GTN tolerance induction in vitro
Attempted induction of tolerance to the NO-donating compounds of the present invention was performed under the same conditions as for GTN. Thus, in an exemplary experiment, rings were exposed to 0.44 mM solution of Pet-3 in the attempt to induce tolerance for Pet-3. CCRC were then measured for the vasorelaxing effect of Pet-3 on a group of rings which were pre-exposed to Pet-3 as to induce tolerance to Pet-3, and for an untreated control group. The above protocol was repeated with Pet-2, Pet-7, Pet-8, Pet-12, Pet-24, Pet-43, Pet-149 and Pet-152.
Cross-tolerance studies were conducted using the same technique described above for measuring vasorelaxation of aortic rings from rats. Two groups of aortic rings samples were pre-treated with GTN, then one group was measured for vasorelaxation by GTN and the second group for vasorelaxation by Pet-12, an exemplary NO-donor according to the present invention. For the opposite cross-tolerance studies, two groups of aortic rings samples were pre-treated with Pet-12, then one group was measured for vasorelaxation by GTN and the second group for vasorelaxation by Pet-12.

[2] = tested on: c-GMP in slices of thoracic aorta of rats; experiment: Cyclic-GMP measurement in aortic rat tissue (radioimmunoassay); assay type: cell-based; details: for cGMP Post-infusion: rat aorta, post-infusion (repeated treatment)
Method: GTN (10^−6 M) was added to the chamber and, 1 minute after exposure to the drug, rings (usually 3-5) were taken, wrapped with aluminum foil and immediately frozen in liquid nitrogen for storage. Control sample group was treated with the vehicle solution only. At the time of analysis, rings were thawed, blotted over a dry gauzed and weighted. A known weight of tissue was homogenized in 2 ml ice-cold modified Hank's balanced salt solution containing (in gram/liter) NaCl 8; KCl 0.4; glucose 1; KH2PO4 0.06; Na2HPO4 0.047; Phenol red 0.017 and further containing 25 mM EDTA (disodium salt). The homogenate was centrifuged at 4000 g (force units) for 10 minutes at 2-4° C. and the supernatant was thereafter transferred into fresh pre-cooled test tube containing 1 ml of acetonitrile. The tubes were vortex mixed for a few seconds and subsequently centrifuged at 4000 g for 5 minutes at 2-4° C., to remove the precipitated protein. Each supernatant was transferred into a clean test tube and evaporated to dryness under a stream of nitrogen at 55° C. The dry residue was reconstituted with 10 volumes of Tris-EDTA buffer pH 7.5 (0.05 M Tris containing 4 mM EDTA). Aliquots of 100 μl of the reconstituted solution in duplicate were used for c-GMP measurements using Amersham RIA kit, as is described in Haj-Yehia & Benet [Pharmacology, 1995, 273, 1, pp. 94-100]. Standard curves were plotted with six concentrations (0, 0.5, 1, 2, 4 and 8 pmoles of c-GMP per tube).
The NO-tolerance effect of GTN and NO-donor compounds according to the present invention was measured by following the production of c-GMP in slices of thoracic aorta of rats. Thus, the production of c-GMP was measured as described in the methods section above for the reference NO-donor compound GTN, and for the NO-donors of the present invention Pet-2, Pet-3, Pet-7, Pet-8, Pet-10, Pet-12, Pet-24, Pet-59, Pet-147, Pet-149, Pet-152, Pet-154 and Pet-155.

[3] = tested on: cGMP in thoracic aorta of rats treated in vivo; experiment: Induction of in vivo nitrate tolerance (16 hour infusion, then cGMP in isolated aorta); design: species or system rat; details: rats infused in vivo 16 hours, aorta re-exposed to the compound
Method: Male Sprague Dawley rats (220 to 250 grams) were housed under constant temperature and humidity conditions. Light was maintained at a 12/12 light dark cycle. Except for 12 hours before the experiment, when food fasting was initiated, all rats had free access to standard rat pellet diet and tap water. The animals were anesthetized by intraperitoneal injection of ketamine and xylazine combination (50 and 10 milligram per kilogram, respectively). […] The catheters were filled with normal saline solution containing 1000 IU/ml of heparin and plugged with a metal pin. Catheters were externalized to the back of the neck region and secured by a polyester felt disk.
After implantation, the rats were individually housed until they regained their preoperative weight and appeared healthy (3 to 4 days post-operation). At this time point (day 0), an osmotic mini-pump (Alza Corp., Palo Alto, Calif.) delivering constant volume (10 μl/hour) of vehicle or drug was connected to one of the intravenous catheters.
For inducing tolerance to the tested NO-donor according to the present invention, the animals received 200 μg/hour of the tested compound for 16 hours (short-term-induced tolerance). A similar number of animals were processed by the same surgical procedure and received the vehicle alone (10 μl/hour of a solution consisting of 30% ethanol and 30% propylene glycol in sterile distilled water for injection).
At the end of the infusion periods used for the development of tolerance (16 hour), the rats were anesthetized as described above, the two catheters were externalized and the delivering catheters were disconnected from the mini-pump. The abdomen was opened by midline incision and the thoracic aorta were isolated, washed and cleaned from the surrounding tissues. Strips of the treated aortas were pooled in chambers containing Krebs-Hanseliet buffer (10 ml), and exposed to 1 μM of the tested NO-donor (final concentration) for 120 seconds. The tissues were quickly collected and frozen in liquid nitrogen for cGMP measurement, described hereinabove.

[4] = tested on: anesthetized hypertensive Sprague-Dawley male rats; experiment: Hypotensive effects: mean arterial pressure after iv bolus in phenylephrine-treated rats; assay type: in vivo, rat
From the text: These techniques were also used to detect tolerance induction by the NO-donors of the present invention and by GTN. For c-GMP levels and tolerance development, the rat's thoracic aorta was isolated after exposure to the tested compound in vivo, and measured as described above in the in vitro assays.
Mean arterial pressure (MAP) was monitored and determined during bolus infusion of Pet-2, Pet-3, Pet-7, Pet-8, Pet-12 and Pet-13. Briefly, polyethylene catheters (PE50) were inserted into the carotid artery and into the jugular vein of anesthetized hypertensive Sprague-Dawley male rats (200-300 grams). A blood pressure recorder was placed within the carotid artery. Phenylephrine (0.1 mg) was then injected and the mean arterial blood pressure (MABP) was monitored continuously until a stable baseline was reached. The hypotensive effects of intravenous (iv) bolus doses (0.1 mg of each tested compound) administered intravenously at the jugular vein in minimal volume of vehicle (0.2 ml per dose) were evaluated. Five minutes were allowed between each dose, during which the maximal decrease in MAP was recorded and a dose-response graph comparing the hypotensive effect of the compounds was constructed.

SMILES | tolerance induction after pre-treatment with the same compound [1] | cGMP Post-infusion [2] | c-GMP level following a repeated treatment ([2]; slices of thoracic aorta of rats) | tolerance in vivo: cGMP level in aorta following repeated treatment [3] | effect on MAP following successive administrations ([4]; iv bolus doses, rats) | vasorelaxation in rings pre-treated with GTN (cross-tolerance) ([1]; rat aorta pre-treated with epinephrine and then with GTN) | vasorelaxation in rings pre-treated with Pet-12 (cross-tolerance) ([1]; rat aorta pre-treated with epinephrine and then with Pet-12) | hypotensive / vasorelaxation effect on heightened mean arterial blood pressure ([4]; rats pre-treated in vivo with phenylephrine, iv bolus 10-100 micrograms)
O=[N+]([O-])OCC(CO[N+](=O)[O-])O[N+](=O)[O-] [GTN, glyceryl trinitrate, reference compound] | tolerance induced | 45 ± 12^¥ pmol/g tissue | significantly reduced | tolerance inducing effect; also recorded: decreased | attenuation |  |  | 
Cc1nc(-c2cccnc2)sc1CCO[N+](=O)[O-] [Pet-12, 3-[4-Methyl-5-(2-nitrooxy-ethyl)-thiazole-2-yl]-pyridine] | absence of tolerance induction | 112 ± 12 pmol/g tissue |  | absence of tolerance induction; also recorded: absence of tolerance effect; also recorded: lack of tolerance induction |  | absence of tolerance induction effect; also recorded: no effect on the vasorelaxation capacity | absence of tolerance induction effect; also recorded: does not evoke tolerance to itself not to GTN | vasorelaxation effect

From US7332513B2, “Thiazole-based nitric oxide donors having acyl substituent(s) and uses thereof” (priority 2004, dated 2008)
